From patent US7524885B2, “Compounds that stimulate glucose utilization and methods of use” (The Governors of the University of Alberta, priority 2002, dated 2009) come the findings set out here.

The subject of the first test is isolated working rat heart. The experiment in a line: Glucose oxidation in isolated perfused working rat heart ([U-14C]glucose, 14CO2 production). The following applies: Table 2A; screening concentration 100 μM; isolated working rat heart; read-out: Glucose Oxidation (% above control). Here is the method: Rat hearts were cannulated for isolated working heart 60 minute aerobic perfusions as described in J Pharmacol Exp Ther. 1993; 264:135-144, the entire disclosure of which is incorporated herein by reference.
Male Sprague-Dawley rats (0.3-0.35 kg) were anesthetized with pentobarbital sodium (60 mg/kg IP) and hearts were quickly excised, the aorta was cannulated and a retrograde perfusion at 37° C. was initiated at a hydrostatic pressure of 60 mm Hg. Hearts were trimmed of excess tissue, and the pulmonary artery and the opening to the left atrium were then cannulated. After 15 min of Langendorff perfusion, hearts were switched to the working mode by clamping the aortic inflow line from the Langendorff reservoir and opening the left atrial inflow line. The perfusate was delivered from an oxygenator into the left atrium at a constant preload pressure of 11 mm Hg. Perfusate was ejected from spontaneously beating hearts into a compliance chamber (containing 1 ml of air) and into the aortic outflow line. The afterload was set at a hydrostatic pressure of 80 mm Hg. All working hearts were perfused with Krebs'-Henseleit solution containing calcium 2.5 mmol/L, glucose 5.5 mmol/L, 3% bovine serum albumin (fatty acid free, initial fractionation by heat shock, Sigma), and with 1.2 mmol/L palmitate. Palmitate was bound to the albumin as described in J Bio Chem. 1992; 267:3825-3831, the entire disclosure of which is incorporated herein by reference.
The perfusate was recirculated, and pH was adjusted to 7.4 by bubbling with a mixture containing 95% O2 and 5% CO2.
Spontaneously beating hearts were used in all perfusions. Heart rate and aortic pressure were measured with a Biopac Systems Inc. blood pressure transducer connected to the aortic outflow line. Cardiac output and aortic flow were measured with Transonic T206 ultrasonic flow probes in the preload and afterload lines, respectively. Coronary flow was calculated as the difference between cardiac output and aortic flow. Cardiac work was calculated as the product of systolic pressure and cardiac output.
Measurement of Glucose Oxidation: Glucose oxidation was measured simultaneously by perfusing hearts with [U-^14C] glucose according to the procedures discussed in Saddik M, et al., J Bio Chem. 1992; 267:3825-3831. The entire disclosure of this reference is incorporated herein by reference. The total myocardial ^14CO2 production was determined at 10-min intervals from the 60-min aerobic period. Glucose oxidation rates were determined by quantitative measurement of ^14CO2 production as described in Barbour RL, et al., Biochemistry. 1984; […]. The entire disclosure of this reference is incorporated herein by reference. ^14CO2 production for the control group were compared with the ^14CO2 production for the group treated with cyclopropanecarboxylic acid, 2-[2-(2-methoxy-ethoxy)-ethoxy]-ethyl ester. Results are shown on FIG. 1 and TABLE 2A.
The procedure of Example A for was followed except that cyclobutanecarboxylic acid, 2-[2-(2-methoxy-ethoxy)-ethoxy]-ethyl ester in 1 μM, 10 μM, 100 μM and 1000 μM amounts was added to the buffer in place of the cyclopropanecarboxylic acid, 2-[2-(2-methoxy-ethoxy)-ethoxy]-ethyl ester. The results are illustrated in FIG. 2 and TABLE 2A.
The procedure of Example A was followed except that cyclopropanecarboxylic acid, 2-isopropoxy-ethyl ester in 1 μM, 10 μM, 100 μM and 1000 μM amounts was added to the buffer in place of the cyclopropanecarboxylic acid, 2-[2-(2-methoxy-ethoxy)-ethoxy]-ethyl ester. The results are illustrated in FIG. 3 and TABLE 2A.
The procedure of Example A was followed except that various cyclobutanecarboxylic acid derivatives, cyclopropanecarboxylic acid derivatives and cyclobutanecarboxylic acid in the amounts of 100 μM or 1000 μM was added to the buffer in place of the cyclopropanecarboxylic acid, 2-[2-(2-methoxy-ethoxy)-ethoxy]-ethyl ester.
Regarding `COCCOCCOC(=O)C1CC1` [Compound 13MM066, Cyclopropanecarboxylic acid 2-(2-methoxy-ethoxy)-ethyl ester], the activation at 100 µM was 20%. The same measure, in the same setting: to `O=C(OCCOCCOCCOC(=O)C1CCC1)C1CCC1` [Compound 22MM075, Cyclobutanecarboxylic Acid, 2-[2-(2-cyclobutanecarbonyloxy-ethoxy)-ethoxy]-ethyl ester] belongs 184%; to `COCCOCCOC(=O)C1CCC1` [Compound 14MM067, Cyclobutanecarboxylic acid 2-(2-methoxy-ethoxy)-ethyl ester], 50%; to `O=C(OCCOCCOCCOC(=O)C1CC1)C1CC1` [Compound 21MM074, Cyclopropanecarboxylic acid, 2-[2-(2-cyclopropanecarbonyloxy-ethoxy)-ethoxy]-ethyl ester], 228%. Take `CCCCOCCOCCOC(=O)C1CCC1` [Compound 7MM060, Cyclobutanecarboxylic acid, 2-(2-butoxy-ethoxy)-ethyl ester]: the activation at 100 µM came out at 65%. On the same count and under the same terms, to `CC(C)OCCNC(=O)C1CC1` [Compound 24MM077, Cyclopropanecarboxylic acid (2-isopropoxy-ethyl)-amide] belongs 217%; to `CCCCCCOCCOCCOC(=O)C1CCC1` [Compound 12MM065, Cyclobutanecarboxylic acid 2-(2-hexyloxy-ethoxy)-ethyl ester], 0%; to `CN(C)CCOCCOC(=O)C1CCC1` [Compound 10MM063, Cyclobutanecarboxylic acid 2-(2-dimethylamino-ethoxy)-ethyl ester], 41%.

Staying with this test, now noted: Table 2A; screening concentration 1000 μM; isolated working rat heart; read-out: Glucose Oxidation (% above control).
In the case of `O=C(O)CNC(=O)C1CCC1` [Compound 2MM055, (Cyclobutanecarbonyl-amino)-acetic acid], the activation at 1000 µM was 58%.

Still in this test, the particulars now being: Table 2B; screening concentration 100 μM; isolated working rat heart; read-out: Glucose Oxidation (% above control).
Regarding `COC(=O)CSC(=O)C1CC1` [Compound 37MM090, Cyclopropanecarbonylsulfanyl-acetic acid methyl ester], the activation at 100 µM is 251%. The same measure, in the same setting: the figure for `COCCOCCOCCOC(=O)C1(c2ccccc2)CC1` [Compound 44MM097, 1-phenyl-cyclopropanecarboxylic acid 2[2-(2-methoxy-ethoxy)-ethoxy]-ethyl ester] is 125%; for `CCOCCOC(=O)C1(c2ccccc2)CC1` [Compound 27MM080, 1-Phenyl-cyclopropanecarboxylic acid 2-ethoxy-ethyl ester] it is 148%. On the same count and under the same terms, the figure for `CCC1(COC(=O)C2CC2)COCOC1` [Compound 40MM093, Cyclopropanecarboxylic acid 5-ethyl-[1,3]-dioxan-5.ylmethyl ester] is 260%; for `CCOCCOC(=O)[C@]1(/C=C/c2ccccc2)C[C@H]1c1ccccc1` [Compound 34MM087, (1S,2S)-2-phenyl-1-styrl-cyclopropanecarboxylic acid 2 ethoxy-ethyl ester] it is 112%; for `CC(=O)NCCSC(=O)C1CC1` [Compound 38MM091, Cyclopropanecarbothioic acid S-(2-acetylamino-ethyl) ester] it is 176%. Regarding `COCCOC(=O)C1CC1` [Compound 30MM083, Cyclopropanecarboxylic acid, 2-Methoxy-ethyl ester], the activation at 100 µM was 197%. Take `CCOCCOC(=O)C1(C)CC1` [Compound 28MM081, 1-Methyl-cyclopropanecarboxylic acid, 2-Ethoxy-ethyl ester]: the activation at 100 µM turned out to be 121%. On the same count and under the same terms, the figure for `Cc1ncsc1CCOC(=O)C1CC1` [Compound 36MM089, Cyclopropanecarboxylic acid 2-(4-methyl-thiazol-5-yl)-ethyl ester] is 202%; for `O=C(OCC1COc2ccccc2O1)C1CC1` (stereo not shown) [Compound 41MM094, Cyclopropanecarboxylic acid 2,3-dihydro-benzo(1,4)dioxin-2-ylmethyl ester] it is 389%.
